Consider nine compounds from patent US12398118B2, “Rho-associated protein kinase inhibitor, pharmaceutical composition comprising same, and use thereof” (BEIJING TIDE PHARMACEUTICAL CO., LTD., priority 2018, dated 2025).

One assay concerns the target ROCK1 (Homo sapiens (Human), UniProt Q13464). Description: ROCK1 kinase IC50, biological test method similar to ROCK2 assay. The format is biochemical.
In another assay the target is ROCK2 (Homo sapiens, UniProt O75116). As to the kind of experiment: ROCK2 kinase IC50, HTRF KinEASE-STK S2 kit. The format is biochemical. The note with it: 2 hours at room temperature. A general note: TR-FRET usually uses a lanthanide donor and a delayed reading to cut background.

Some results are limits rather than exact numbers.

ROCK1, sequence (Q13464 whole entry, species assumed): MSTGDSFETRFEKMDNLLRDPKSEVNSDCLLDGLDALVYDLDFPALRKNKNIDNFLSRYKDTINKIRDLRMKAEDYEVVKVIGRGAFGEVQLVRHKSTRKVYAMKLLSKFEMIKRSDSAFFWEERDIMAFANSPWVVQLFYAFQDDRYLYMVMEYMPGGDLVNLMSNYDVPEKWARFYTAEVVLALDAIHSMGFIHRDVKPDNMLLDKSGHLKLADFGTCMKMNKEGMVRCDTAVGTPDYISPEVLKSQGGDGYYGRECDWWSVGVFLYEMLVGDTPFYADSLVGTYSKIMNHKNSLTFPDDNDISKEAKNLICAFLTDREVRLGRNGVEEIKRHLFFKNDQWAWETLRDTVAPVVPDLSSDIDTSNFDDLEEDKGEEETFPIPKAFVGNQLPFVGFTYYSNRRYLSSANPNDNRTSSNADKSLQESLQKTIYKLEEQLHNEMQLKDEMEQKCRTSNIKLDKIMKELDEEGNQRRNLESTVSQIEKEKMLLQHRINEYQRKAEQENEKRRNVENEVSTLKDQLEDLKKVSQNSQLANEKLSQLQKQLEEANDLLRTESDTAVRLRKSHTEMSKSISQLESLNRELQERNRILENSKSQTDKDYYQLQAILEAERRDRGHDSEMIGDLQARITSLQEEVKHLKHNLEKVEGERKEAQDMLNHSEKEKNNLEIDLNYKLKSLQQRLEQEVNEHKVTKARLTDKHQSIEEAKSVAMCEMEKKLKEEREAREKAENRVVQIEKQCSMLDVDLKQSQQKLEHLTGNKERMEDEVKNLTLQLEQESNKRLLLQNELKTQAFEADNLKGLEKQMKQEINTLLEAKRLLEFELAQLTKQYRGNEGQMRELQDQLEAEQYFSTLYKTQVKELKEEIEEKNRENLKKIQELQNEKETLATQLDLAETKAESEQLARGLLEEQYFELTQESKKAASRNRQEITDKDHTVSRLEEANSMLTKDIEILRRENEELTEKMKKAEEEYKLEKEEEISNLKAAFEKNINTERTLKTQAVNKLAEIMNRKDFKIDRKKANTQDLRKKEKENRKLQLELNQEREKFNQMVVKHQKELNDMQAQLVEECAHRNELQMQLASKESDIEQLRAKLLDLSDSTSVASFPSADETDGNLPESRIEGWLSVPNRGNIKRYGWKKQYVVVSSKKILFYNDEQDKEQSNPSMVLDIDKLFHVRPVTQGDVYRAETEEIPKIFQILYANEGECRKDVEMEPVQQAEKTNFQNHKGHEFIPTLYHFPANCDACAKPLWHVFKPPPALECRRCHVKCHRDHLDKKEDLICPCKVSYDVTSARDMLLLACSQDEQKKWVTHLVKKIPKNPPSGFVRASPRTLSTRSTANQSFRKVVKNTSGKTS
ROCK2, sequence (O75116 whole entry, looked up): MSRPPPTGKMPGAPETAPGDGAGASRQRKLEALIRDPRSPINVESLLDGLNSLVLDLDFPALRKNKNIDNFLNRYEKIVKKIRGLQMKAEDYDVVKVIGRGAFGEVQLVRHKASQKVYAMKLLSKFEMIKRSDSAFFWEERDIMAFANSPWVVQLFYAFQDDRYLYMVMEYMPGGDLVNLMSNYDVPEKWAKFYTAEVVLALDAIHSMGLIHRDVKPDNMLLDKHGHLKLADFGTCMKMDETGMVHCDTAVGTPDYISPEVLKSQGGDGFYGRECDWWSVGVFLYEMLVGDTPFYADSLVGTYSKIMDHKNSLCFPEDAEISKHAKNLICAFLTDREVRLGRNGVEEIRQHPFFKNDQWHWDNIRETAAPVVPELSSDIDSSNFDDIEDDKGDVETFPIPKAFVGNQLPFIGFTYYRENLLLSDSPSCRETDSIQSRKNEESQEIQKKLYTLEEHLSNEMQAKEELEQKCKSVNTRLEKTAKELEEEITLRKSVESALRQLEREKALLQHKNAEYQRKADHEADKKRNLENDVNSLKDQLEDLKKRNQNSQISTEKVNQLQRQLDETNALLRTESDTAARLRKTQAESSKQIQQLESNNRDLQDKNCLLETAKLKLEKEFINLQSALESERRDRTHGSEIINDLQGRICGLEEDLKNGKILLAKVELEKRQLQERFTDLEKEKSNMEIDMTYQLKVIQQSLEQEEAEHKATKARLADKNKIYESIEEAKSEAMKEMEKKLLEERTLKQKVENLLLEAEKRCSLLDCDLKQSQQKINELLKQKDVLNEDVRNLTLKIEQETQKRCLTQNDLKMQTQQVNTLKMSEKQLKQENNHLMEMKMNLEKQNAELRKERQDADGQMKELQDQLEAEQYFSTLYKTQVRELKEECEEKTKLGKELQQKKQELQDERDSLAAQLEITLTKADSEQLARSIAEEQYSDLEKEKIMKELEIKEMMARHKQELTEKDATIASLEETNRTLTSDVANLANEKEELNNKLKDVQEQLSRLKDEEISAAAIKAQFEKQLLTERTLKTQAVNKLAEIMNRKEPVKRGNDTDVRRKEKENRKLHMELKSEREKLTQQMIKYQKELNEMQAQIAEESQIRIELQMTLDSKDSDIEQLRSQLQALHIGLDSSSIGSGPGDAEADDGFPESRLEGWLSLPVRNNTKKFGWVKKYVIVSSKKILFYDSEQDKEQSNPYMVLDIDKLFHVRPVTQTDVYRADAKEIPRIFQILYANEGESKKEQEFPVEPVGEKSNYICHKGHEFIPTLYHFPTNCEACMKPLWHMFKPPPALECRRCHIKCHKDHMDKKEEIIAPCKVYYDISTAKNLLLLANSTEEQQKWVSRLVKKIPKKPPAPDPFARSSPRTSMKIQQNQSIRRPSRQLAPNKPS

In the case of `O=C(CCC(F)(F)F)N1CCc2cc(-c3ncc(F)c(Nc4ccc5c(=O)[nH]ccc5c4)n3)ccc21` [C70, 6-((5-fluoro-2-(1-(4,4,4-trifluoro-butanoyl)indolin-5-yl)pyrimidin-4-yl)amino) isoquinolin-1(2H)-one], the values for the IC50 against ROCK1 and on ROCK2 were above 10000 nM and 15 nM, respectively.

As for `CC(CC(=O)N1CCc2cc(-c3ncc(F)c(Nc4ccc5c(=O)[nH]ccc5c4)n3)ccc21)C(F)(F)F` (stereo not drawn) [C71, 6-((5-fluoro-2-(1-(4,4,4-trifluoro-3-methyl-butanoyl)indolin-5-yl)pyrimidin-4-yl)amino) isoquinolin-1(2H)-one], the IC50 against ROCK1 is above 10000 nM; against ROCK2, 25 nM.

For `CC(OC(=O)N1CCc2cc(-c3ncc(F)c(Nc4ccc5c(=O)[nH]ccc5c4)n3)ccc21)C(F)(F)F` (stereo not drawn) [C73, 1,1,1-trifluoro-propan-2-yl 5-(5-fluoro-4-((1-oxo-1,2-dihydro-isoquinolin-6-yl)amino)pyrimidin-2-yl) indoline-1-carboxylate], the figures for the IC50 against ROCK1 and against ROCK2 were above 10000 nM and 78 nM, respectively.

For the compound `CC(CC(=O)N1CCc2cc(-c3ncc(F)c(Nc4ccc5c(c4)CCNC5=O)n3)ccc21)C(F)(F)F` (stereo not drawn) [C74, 6-((5-fluoro-2-(1-(4,4,4-trifluoro-3-methyl-butanoyl)indolin-5-yl)pyrimidin-4-yl)amino)-3,4-dihydro-isoquinolin-1(2H)-one], the IC50 was above 10000 nM on ROCK1 and 54 nM at ROCK2.

Regarding `CC(C)(C)OC(=O)N1Cc2ccc(-c3ncc(F)c(Nc4ccc5c(c4)CCNC5=O)n3)cc2C1` [C76, tert-butyl 5-(5-fluoro-4-((1-oxo-1,2,3,4-tetrahydro-isoquinolin-6-yl)amino)pyrimidin-2-yl) isoindoline-2-carboxylate], the IC50 at ROCK1 is above 10000 nM; at ROCK2, 49 nM.

`CN(CC(F)(F)F)C(=O)N1Cc2ccc(-c3ncc(F)c(Nc4ccc5c(c4)CCNC5=O)n3)cc2C1` [C78, 5-(5-fluoro-4-((1-oxo-1,2,3,4-tetrahydro-isoquinolin-6-yl)amino)pyrimidin-2-yl)-N-methyl-N-(2,2,2-trifluoro-ethyl) isoindoline-2-carboxylate]: the concentration for half-maximal inhibition (IC50) against ROCK1 is above 10000 nM; at ROCK2 it was 40 nM.

As for `O=C(N1Cc2ccc(-c3ncc(F)c(Nc4ccc5c(=O)[nH]ccc5c4)n3)cc2C1)N1CC(F)(F)C1` [C79, 6-((2-(2-(3,3-difluoro-azetidine-1-carbonyl)isoindolin-5-yl)-5-fluoro-pyrimidin-4-yl)amino) isoquinolin-1(2H)-one], the IC50 on ROCK1 was above 10000 nM; at ROCK2 it was 46 nM.

As for `O=C1NCCc2cc(Nc3nc(-c4ccc5c(c4)CN(C(=O)N4CC(F)(F)C4)C5)ncc3F)ccc21` [C81, 6-((2-(2-(3,3-difluoro-azetidine-1-carbonyl)isoindolin-5-yl)-5-fluoro-pyrimidin-4-yl)amino)-3,4-dihydro-isoquinolin-1(2H)-one], the IC50 on ROCK1 is above 10000 nM; against ROCK2, 129 nM.

Take `CC(C)(CC(=O)N1Cc2ccc(-c3ncc(F)c(Nc4ccc5c(c4)CCNC5=O)n3)cc2C1)C(F)(F)F` [C82, 6-((5-fluoro-2-(2-(4,4,4-trifluoro-3,3-dimethyl-butanoyl)isoindolin-5-yl)pyrimidin-4-yl)amino)-3,4-dihydro-isoquinolin-1(2H)-one]: the IC50 against ROCK1 is above 10000 nM; against ROCK2 it was 129 nM.

As usually defined, the IC50 is the concentration needed to halve the response being measured. High values mean weaker potency in that assay, low ones greater potency in that assay.
